Here are results for 16 molecules from patent US20070037862A1, “Thiazolidinones, their production and use as pharmaceutical agents” (priority 2003, published 2007).

In one experiment the target is T1, Recombinant human Plk-1 (6×His) (Homo sapiens, UniProt P53350).
T1 construct: 6xHis; made in house; host or cells: baculovirus-infected Hi5 insect cells
T1 sequence (P53350 whole entry): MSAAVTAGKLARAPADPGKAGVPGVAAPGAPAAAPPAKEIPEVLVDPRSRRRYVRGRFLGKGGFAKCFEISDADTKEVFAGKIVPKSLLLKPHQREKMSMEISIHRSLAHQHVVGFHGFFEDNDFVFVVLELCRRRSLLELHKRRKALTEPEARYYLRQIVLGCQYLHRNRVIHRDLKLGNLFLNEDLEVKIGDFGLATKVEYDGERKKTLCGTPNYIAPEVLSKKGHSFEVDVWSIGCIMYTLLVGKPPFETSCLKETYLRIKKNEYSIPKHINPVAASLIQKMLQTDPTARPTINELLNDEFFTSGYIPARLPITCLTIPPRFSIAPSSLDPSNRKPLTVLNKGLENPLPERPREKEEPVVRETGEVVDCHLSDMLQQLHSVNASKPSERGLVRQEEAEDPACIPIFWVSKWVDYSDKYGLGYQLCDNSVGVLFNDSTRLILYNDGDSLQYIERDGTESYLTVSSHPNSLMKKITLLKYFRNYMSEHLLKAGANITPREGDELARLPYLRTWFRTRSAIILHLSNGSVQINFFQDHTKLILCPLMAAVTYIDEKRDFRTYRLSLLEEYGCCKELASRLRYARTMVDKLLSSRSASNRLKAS
Description: PLK enzyme assay. The conditions noted are these: Table 1; read-out: PLK IC50. In kind it is biochemical. How it is done: Recombinant human Plk-1 (6×His) was purified from baculovirus-infected insect cells (Hi5).
10 ng of (produced in a recombinant manner and purified) PLK enzyme is incubated for 90 minutes at room temperature with biotinylated casein and 33P-γ-ATP as a substrate in a volume of 15 μl in 384-well Greiner small-volume microtiter plates (final concentrations in the buffer: 660 ng/ml of PLK; 0.7 μmol of casein, 0.5 μmol of ATP incl. 400 nCi/ml of 33P-γ-ATP; 10 mmol of MgCl2, 1 mmol of MnCl2; 0.01% NP40; 1 mmol of DTT, protease inhibitors; 0.1 mmol of Na2VO3 in 50 mmol of HEPES, pH 7.5). To complete the reaction, 5 μl of stop solution (500 μmol of ATP; 500 mmol of EDTA; 1% Triton X100; 100 mg/ml of streptavidin-coated SPA beads in PBS) is added. After the microtiter plate is sealed by film, the beads are sedimented by centrifuging (10 minutes, 1500 rpm). The incorporation of 33P-γ-ATP in casein is intended as a measurement of enzyme activity by β-counting.
Test substances are used in various concentrations (0 μmol, as well as in the range of 0.01-30 ∥mol). The final concentration of the solvent dimethyl sulfoxide is 1.5% in all batches.
As for `CCCCN(C)C(=O)/C(C#N)=c1\sc(=CNc2ccccc2)c(=O)n1CC` [Example 234], the IC50 turned out to be 950 nM.

On to `CCOC(=O)C(C#N)=c1sc(=CNc2ccc(OC)c(NC(=S)N3CCOCC3)c2)c(=O)n1CC` (mixture of isomers) [Example 56], for which the IC50 was found to be 810 nM. In the case of `CCOC(=O)C(C#N)=c1sc(=CNc2ccc(NC(=O)COC)cc2)c(=O)n1CC` [Example 19], the IC50 was 500 nM.

For the molecule `CCOC(=O)C(C#N)=c1sc(=CNc2ccccc2F)c(=O)n1CC` (mixture of isomers) [Example 36], the IC50 was 160 nM. Still for that read-out and setting: the figure for `CCn1c(=O)c(=CNc2ccccc2)s/c1=C(/C#N)C(=O)NCc1ccco1` [Example 223] is 3100 nM.

The experiment is the same for the next values; noted with them: Table 2, Amides; read-out: Inhibition of Plk-1 IC50.
On to `CCn1c(=O)c(=CNc2ccc(OCCN(C)C)cc2)s/c1=C(/C#N)C(=O)NCC(F)F` [Example 310], for which the IC50 is 74 nM. With `C#CCNC(=O)/C(C#N)=c1\sc(=CNc2ccc(OCCN(C)C)cc2)c(=O)n1CC` [Example 307], the IC50 came out at 71 nM.

Staying with this experiment, now noted: Table 3, Esters; read-out: Inhibition of Plk-1 IC50.
`C=CCOC(=O)C(C#N)=c1sc(=CNc2ccc(NC(=O)NCCN3CCCC3)cc2)c(=O)n1CC` (mixture of isomers) [Example 47]: the IC50 came to 23 nM.

A further experiment concerns human MaTu breast tumor cells. Description: Proliferation assay (crystal violet). The class given is cell-based. The following applies: 96 h, Table 2, Amides, 4 days, read-out: Inhibition of Tumor Cell Proliferation (MaTu) IC50. The protocol: Cultivated human MaTu breast tumor cells were flattened out at a density of 5000 cells/measuring point in a 96-well multititer plate in 200 μl of the corresponding growth medium. After 24 hours, the cells of one plate (zero-point plate) were colored with crystal violet (see below), while the medium of the other plates was replaced by fresh culture medium (200 μl), to which the test substances were added in various concentrations (0 μm, as well as in the range of 0.01-30 μm; the final concentration of the solvent dimethyl sulfoxide was 0.5%). The cells were incubated for 4 days in the presence of test substances. The cell proliferation was determined by coloring the cells with crystal violet: the cells were fixed by adding 20 μl/measuring point of an 11% glutaric aldehyde solution for 15 minutes at room temperature. After three washing cycles of the fixed cells with water, the plates were dried at room temperature. The cells were colored by adding 100 μl/measuring point of a 0.1% crystal violet solution (pH was set at 3 by adding acetic acid). After three washing cycles of the colored cells with water, the plates were dried at room temperature. The dye was dissolved by adding 100 μl/measuring point of a 10% acetic acid solution. The extinction was determined by photometry at a wavelength of 595 nm. The change of cell growth, in percent, was calculated by standardization of the measured values to the extinction values of the zero-point plate (=0%) and the extinction of the untreated (0 μm) cells (=100%).
Regarding `CCn1c(=O)c(=CNc2cccc(NC(=O)C(C)(C)C)c2)s/c1=C(/C#N)C(=O)NC1(CO)CCCC1` [Example 192], the IC50 was found to be 9700 nM. In the case of `CCn1c(=O)c(=CNc2ccc(CCN3CCCC3)cc2)s/c1=C(/C#N)C(=O)NCC(F)(F)F` [Example 527], the IC50 came to 2800 nM. Take `CCN(CC)CCNC(=O)c1c[nH]c2ccc(NC=c3s/c(=C(/C#N)C(=O)NCC(F)(F)F)n(CC)c3=O)cc12` [Example 330]: the IC50 came out at 1200 nM. For `CCNC(=O)/C(C#N)=c1\sc(=CNc2cccc(C(=O)NCCCN3CCCC3)c2)c(=O)n1CC` [Example 169], the IC50 was determined as 3550 nM. Same read-out and setting: in the case of `CCn1c(=O)c(=CNc2ccccc2)s/c1=C(/C#N)C(=O)N1CCCC1` [Example 210] it was 4500 nM.

Still in this experiment, the particulars now being: 96 h, Table 3, Esters, 4 days, read-out: Inhibition of Tumor Cell Proliferation (MaTu) IC50.
For the molecule `C=CCOC(=O)C(C#N)=c1sc(=CNc2ccc(C(C)=O)cc2)c(=O)n1CC` (mixture of isomers) [Example 133], the IC50 came to 1400 nM.

On to `CCOC(=O)C(C#N)=c1sc(=CNc2ccc(NC(=O)NCCN3CCCC3)cc2)c(=O)n1CC` [Example 74], for which the IC50 was 3300 nM. On to `C=CCOC(=O)C(C#N)=c1sc(=CNc2ccc(NC(=O)NCCN3CCCC3)cc2)c(=O)n1CC` (mixture of isomers) [Example 47], for which the IC50 was 1100 nM.

With `CCOC(=O)C(C#N)=c1sc(=CNc2ccc(C(C)=O)cc2)c(=O)n1CC` (mixture of isomers) [Example 132], the IC50 came out at 3100 nM.
